The assay addresses T1, prestin (SLC26A5) (Mus musculus, UniProt Q99NH7).
T1 construct: endogenous prestin in isolated C57BL/6 mouse outer hair cells
T1 sequence (Q99NH7 1-744): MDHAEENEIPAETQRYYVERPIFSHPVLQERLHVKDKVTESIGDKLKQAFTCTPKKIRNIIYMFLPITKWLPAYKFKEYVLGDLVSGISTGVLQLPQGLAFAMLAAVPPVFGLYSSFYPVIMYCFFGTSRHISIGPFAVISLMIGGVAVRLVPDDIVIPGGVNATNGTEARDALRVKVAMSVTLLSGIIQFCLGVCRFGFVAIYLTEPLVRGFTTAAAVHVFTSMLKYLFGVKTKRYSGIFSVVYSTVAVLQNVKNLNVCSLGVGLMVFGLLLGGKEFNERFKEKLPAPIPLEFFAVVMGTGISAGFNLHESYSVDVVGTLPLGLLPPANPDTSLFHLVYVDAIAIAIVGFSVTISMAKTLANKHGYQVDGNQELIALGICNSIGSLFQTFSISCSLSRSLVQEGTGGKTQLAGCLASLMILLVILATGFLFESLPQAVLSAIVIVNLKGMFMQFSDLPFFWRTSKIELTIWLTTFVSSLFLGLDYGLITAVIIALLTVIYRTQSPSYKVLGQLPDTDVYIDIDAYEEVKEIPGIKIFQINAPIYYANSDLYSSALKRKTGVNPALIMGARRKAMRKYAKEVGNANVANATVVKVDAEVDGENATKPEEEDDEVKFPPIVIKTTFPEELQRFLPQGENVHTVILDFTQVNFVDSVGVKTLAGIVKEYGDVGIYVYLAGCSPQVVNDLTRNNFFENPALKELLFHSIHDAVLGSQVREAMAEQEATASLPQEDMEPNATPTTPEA
The assay can be described thus: whole-cell patch clamp of outer hair cells, non-linear capacitance / charge transfer (Qmax) at […] intracellular chloride. The format is cell-based.

SMILES strings stand for the structures.

For `O=C(O)c1cc(-c2ccc(F)cc2F)ccc1O` [DFL, diflunisal], the half-inhibitory concentration (IC50) – broadly, the concentration that inhibits the measured activity by half – amounted to 98 µM.

For the origin of these results see publication PMC5560734, “Diflunisal inhibits prestin by chloride-dependent mechanism” (PLoS ONE, 2017).
